We go through ten molecules from PubChem BioAssay (NCI).

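Step 1: Grow cells in 96-well plates. Step 2: Expose to compound for 48 hours at 5 concentrations. Step 3: Interpolate endpoints linearly; if unreached, use highest concentration. The concentration for 50% growth inhibition is given as GI50. TGI: concentration producing complete growth inhibition.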

Some test systems named below: BT-549 breast; HS 578T breast; HT29 colon; KM12 colon; M14 melanoma; OVCAR-5 ovarian; SNB-75 CNS; SW-620 colon; UACC-257 melanoma; A549 NSCLC.
Common to all, as to test: growth of human tumour cells (NCI), 48 h

In the case of `Cc1[nH]nc2c1N=C(c1ccccc1Cl)c1cc([N+](=O)[O-])ccc1N2`, the GI50 was more than 15.1 µM in the test with BT-549 breast; 0.223 µM in the test with HS 578T breast; 0.979 µM in the test with HT29 colon; 0.338 µM in the test with KM12 colon; 0.687 µM in the test with M14 melanoma; more than 25 µM in the test on OVCAR-5 ovarian. In addition, the values for the GI50 with SNB-75 CNS, with SW-620 colon and in the test with UACC-257 melanoma were 0.0215 µM, 0.14 µM and more than 25 µM, respectively. Besides, the TGI in the test with BT-549 breast is more than 25 µM; in the test on HS 578T breast it was more than 25 µM; in the test on HT29 colon, more than 25 µM; in the test with KM12 colon, more than 13.7 µM; in the test with M14 melanoma, more than 25 µM; in the test on OVCAR-5 ovarian it was more than 25 µM. Also, the TGI in the test on SW-620 colon and with UACC-257 melanoma was more than 25 µM throughout.

Take `NC1=Nc2cc(OCCCN3Cc4ccccc4C3)c(OCC3CC3)cc2C12CCCC2`: the GI50 in the test with A549 NSCLC is 3.99 µM; in the test on BT-549 breast, 2.26 µM; in the test on HS 578T breast, 2.83 µM; in the test with HT29 colon, 1.95 µM; in the test with KM12 colon, 4.04 µM; with M14 melanoma, 1.85 µM. For the same molecule, the GI50 in the test with OVCAR-5 ovarian was 5.99 µM; in the test on SNB-75 CNS it was 1.07 µM; in the test with SW-620 colon, 2.07 µM; with UACC-257 melanoma it was 2.2 µM. The TGI in the test with A549 NSCLC came to 13.5 µM; in the test with BT-549 breast, 7.84 µM; in the test on HS 578T breast it was 17.7 µM; in the test on HT29 colon it was 6.53 µM; in the test with KM12 colon, 15.5 µM; in the test with M14 melanoma, 3.47 µM. Also, the TGI in the test with OVCAR-5 ovarian was 19.1 µM; in the test on SNB-75 CNS, 7.97 µM; with SW-620 colon, 4.88 µM; in the test with UACC-257 melanoma, 3.94 µM.

For `C/C(=N\N=C(N)N)C(CN(C)C)C(c1ccccc1)c1c(O)c2ccccc2oc1=O` (configuration not stated), the TGI in the test on A549 NSCLC, with BT-549 breast, with HS 578T breast, in the test with HT29 colon, in the test on KM12 colon and in the test with M14 melanoma was more than 100 µM each time. For the same molecule, the TGI with OVCAR-5 ovarian, with SNB-75 CNS, with SW-620 colon and in the test with UACC-257 melanoma was more than 100 µM throughout.

In the case of `C[C@H](N)C(=O)N1C[C@H](CCCB(O)O)[C@](N)(C(=O)O)C1`, the GI50 in the test on A549 NSCLC, with BT-549 breast, in the test with HS 578T breast, in the test with HT29 colon, with KM12 colon and in the test with M14 melanoma was more than 100 µM throughout. Moreover, the GI50 with OVCAR-5 ovarian, in the test on SNB-75 CNS, in the test with SW-620 colon and with UACC-257 melanoma was more than 100 µM in each case. The TGI with A549 NSCLC, in the test on BT-549 breast, with HS 578T breast, in the test with HT29 colon, in the test with KM12 colon and with M14 melanoma was more than 100 µM in each case. For the same molecule, the TGI with OVCAR-5 ovarian, in the test on SNB-75 CNS, in the test on SW-620 colon and in the test with UACC-257 melanoma was more than 100 µM each time.

With `Nc1nc(-c2cccc([N+](=O)[O-])c2)cc(-c2cc(-c3cccc([N+](=O)[O-])c3)nc(N)n2)n1`, the TGI with A549 NSCLC, in the test with BT-549 breast, in the test on HS 578T breast, in the test on HT29 colon, with KM12 colon and in the test on M14 melanoma was more than 100 µM in each case. Further, the TGI with OVCAR-5 ovarian, in the test on SW-620 colon and with UACC-257 melanoma was more than 100 µM throughout.

Take `O=C1CS/C(=N\S(=O)(=O)c2ccc(N3N=C4c5ccccc5CC4C3c3ccc(Cl)cc3)cc2)N1c1ccccc1` (configuration not stated): the GI50 is 24.2 µM in the test on A549 NSCLC; 35.6 µM in the test with BT-549 breast; 29.4 µM with HS 578T breast; 22 µM with KM12 colon; 59.4 µM in the test on M14 melanoma; 37.4 µM in the test on SW-620 colon. For the same molecule, the GI50 in the test with UACC-257 melanoma is 92.9 µM. Further, the TGI in the test with A549 NSCLC was 65.8 µM; in the test with BT-549 breast, more than 100 µM; with HS 578T breast, 87.4 µM; with KM12 colon, 58.6 µM; in the test with M14 melanoma it was more than 100 µM; with SW-620 colon, more than 100 µM. The molecule also displayed a TGI in the test on UACC-257 melanoma of more than 100 µM.

On to `N#C/C(=C\c1ccc(Br)cc1)n1nnc2ccccc21`, for which the GI50 in the test on A549 NSCLC is 0.808 µM; in the test on BT-549 breast, 0.566 µM; with HS 578T breast it was 2.63 µM; in the test on HT29 colon it was 0.411 µM; in the test with KM12 colon, 0.512 µM; with M14 melanoma, 0.386 µM. For the same molecule, the results for the GI50 with OVCAR-5 ovarian, in the test with SW-620 colon and in the test with UACC-257 melanoma were 1.13 µM, 0.318 µM and 1.19 µM, respectively. The TGI in the test on A549 NSCLC is 15 µM; with BT-549 breast, 4.85 µM; with HS 578T breast, 14 µM; in the test on HT29 colon, 2.25 µM; with KM12 colon it was 2.33 µM; in the test on M14 melanoma, 3.44 µM. Besides, the TGI with OVCAR-5 ovarian was 3.26 µM; with SW-620 colon it was 1.57 µM; in the test on UACC-257 melanoma, 4.26 µM.

Regarding `O=[N+]([O-])c1ccc(Cl)cc1N/N=C/c1cccc2cccnc12`, the TGI in the test with A549 NSCLC, in the test with BT-549 breast, with HS 578T breast, in the test on HT29 colon, with KM12 colon and in the test on M14 melanoma was more than 100 µM throughout. The TGI in the test on SNB-75 CNS, in the test with SW-620 colon and with UACC-257 melanoma was more than 100 µM throughout.

As to `Clc1ccc(Nc2ccnc(NCCCNc3ccnc4cc(Cl)ccc34)n2)cc1`, the GI50 in the test on A549 NSCLC was 1.73 µM; in the test with BT-549 breast it was 1.74 µM; in the test with HS 578T breast it was 1.73 µM; in the test with HT29 colon it was 1.29 µM; in the test on OVCAR-5 ovarian, 1.68 µM; with SNB-75 CNS it was 1.23 µM. Further, the GI50 is 1.49 µM in the test with SW-620 colon and 1.87 µM in the test on UACC-257 melanoma. Besides, the TGI with A549 NSCLC was determined as 3.35 µM; in the test with BT-549 breast, 3.67 µM; in the test on HS 578T breast, 3.8 µM; in the test on HT29 colon it was 2.83 µM; in the test on OVCAR-5 ovarian, 3.09 µM; with SNB-75 CNS it was 2.5 µM. In addition, the TGI was found to be 3.11 µM with SW-620 colon and 3.43 µM with UACC-257 melanoma.

Take `COc1ccc(-c2cc(=O)c3c(OC)c(OC)c(OC)c(OC)c3o2)c(OC)c1`: the TGI with A549 NSCLC is more than 100 µM; in the test on BT-549 breast it was more than 100 µM; in the test with HS 578T breast, 49.4 µM; with HT29 colon, 68.5 µM; in the test on M14 melanoma, 46.7 µM; in the test on OVCAR-5 ovarian, more than 100 µM. Moreover, the TGI was more than 100 µM in the test with SNB-75 CNS, more than 100 µM in the test with SW-620 colon and 49.5 µM with UACC-257 melanoma.
